Where two headings read alike, the source gives them in different places. Where a SMILES comes first, the peptide text is derived from it. The star is where a group is joined. Cbz = O=C(OCc1ccccc1)*; CHN2 = [N-]=[N+]=C*; tBu = CC(C)(C)*
Experiments:
[1] = system: HIV/EBOV pseudovirus (Ebola virus Zaire Mayinga glycoprotein); test: organism not typed; format: cell-based; conditions: for IC50: read-out: IC50 HIV/EBOV
[2] = system: HIV/MARV pseudovirus (Marburg virus Musoke glycoprotein); test: organism not typed; format: cell-based; conditions: for IC50: read-out: IC50 HIV/MARV
[3] = system: HIV/MLAV pseudovirus (Měnglà virus glycoprotein); test: organism not typed; format: cell-based; conditions: for IC50: read-out: IC50 HIV/MLAV
[4] = in vitro; conditions: human
[5] = system: HIV/VSV pseudovirus (control); format: cell-based, vesicular stomatitis virus
[6] = system: A549 cells
[7] = system: MLAV; conditions: cited from earlier work

SMILES | IC50 ([1]; A549, 48 h) | IC50 ([2]; A549, 48 h) | IC50 ([3]; A549, 48 h) | CC50 [4] | further results
CC(C)[C@H](NC(=O)OCc1ccccc1)C(=O)N[C@H](C=O)Cc1ccccc1 [MDL‐28170] (Cbz-Val-Phe-aldehyde) | 1.44 ± 0.2 µM | 1.69 ± 0.46 µM | 9.46 ± 1.69 µM | > 100 µM | inhibition of EBOV pseudovirus entry (in words) [1]: can block; inhibition of MARV pseudovirus entry (in words) [2]: can block; inhibition of MLAV pseudovirus entry (in words) [3]: can block
CNCCC(Oc1ccc(C(F)(F)F)cc1)c1ccccc1 (centres unmarked) [Fluoxetine] | – | – | – | 28.7 ± 0.1 µM | –
CCCCOc1cc(C(=O)NCCN(CC)CC)c2ccccc2n1 [Dibucaine] | 2.93 ± 1.04 µM | 5.82 ± 0.37 µM | 10.8 ± 1.68 µM | 51.3 ± 1.2 µM | –
CC(=O)N[C@@H](CC(C)C)C(=O)N[C@@H](CC(C)C)C(=O)N[C@H](C=O)CCCNC(=N)N [Leupeptin] | 0.41 ± 0.04 µM | 0.92 ± 0.27 µM | 1.24 ± 0.29 µM | > 100 µM | inhibition of VSV pseudovirus entry (in words) [5]: ineffective
CC(C)(C)Oc1ccc(C[C@H](NC(=O)[C@H](Cc2ccccc2)NC(=O)OCc2ccccc2)C(=O)C=[N+]=[N-])cc1 [Cathepsin L Inhibitor III] (Cbz-Phe-Tyr(tBu)-CHN2) | – | – | – | – | IC50 [1]: 0.75 ± 0.19 µM; IC50 [2]: 2.38 ± 0.4 µM; IC50 [3]: 7.14 ± 1.5 µM; inhibition of VSV pseudovirus entry at 100 µM (in words) [5]: no inhibition; CC50 [6]: > 100 µM
CN(C)CCCN1c2ccccc2CCc2ccccc21 [Imipramine] | 2 ± 0.65 µM | 5.55 ± 1.12 µM | 7.91 ± 0.81 µM | 76.3 ± 7.4 µM | –
CN[C@H]1CC[C@@H](c2ccc(Cl)c(Cl)c2)c2ccccc21 [Sertraline] | – | – | – | 15 ± 0.9 µM | –
CN(C)CCOc1ccc(/C(=C(/CCCl)c2ccccc2)c2ccccc2)cc1 [Toremifene] | 0.06 ± 0.05 µM | 1.75 ± 0.86 µM | 3.63 ± 0.72 µM | 25.3 ± 1.6 µM | inhibition of MLAV (in words) [7]: inhibited MLAV
CN1[C@@H]2CC[C@H]1C[C@@H](OC(c1ccccc1)c1ccccc1)C2 [Benztropine] | – | – | – | 54.5 ± 2 µM | –
NCCc1ccc(S(=O)(=O)F)cc1 [AEBSF] | – | – | – | – | inhibition of EBOV pseudovirus entry (in words) [1]: limited inhibition; IC50 [1]: 19.1 ± 0.58 µM; inhibition of MARV pseudovirus entry (in words) [2]: limited inhibition; IC50 [2]: 29 ± 1.7 µM; inhibition of MLAV pseudovirus entry (in words) [3]: unable to effectively inhibit; IC50 [3]: 36.7 ± 10.4 µM; CC50 [6]: ~100 µM
Fc1ccc([C@@H]2CCNC[C@H]2COc2ccc3c(c2)OCO3)cc1 [Paroxetine] | 0.36 ± 0.4 µM | 1.83 ± 0.66 µM | 4.88 ± 1.7 µM | 23.6 ± 2.5 µM | selectivity index (SI) with MLAV [3]: 5
CC(C)COCC(CN(Cc1ccccc1)c1ccccc1)N1CCCC1 (centres unmarked) [Bepridil] | 3.27 ± 0.4 µM | 7.37 ± 0.9 µM | 9.74 ± 0.94 µM | 34.7 ± 4.6 µM | –
CCCNC(=O)[C@H]1O[C@@H]1C(=O)N[C@H](C(=O)N1CCC[C@H]1C(=O)O)[C@@H](C)CC [CA‐074] | – | – | – | – | IC50 [1]: 28.4 ± 6.56 µM; inhibition of MARV pseudovirus entry at 100 µM (in words) ([2]; at 100 µM): resistant; IC50 [2]: > 100 µM; inhibition of MLAV pseudovirus entry at 100 µM (in words) ([3]; at 100 µM): resistant; IC50 [3]: > 100 µM; inhibition of VSV pseudovirus entry at 100 µM (in words) [5]: resistant; CC50 [6]: > 100 µM

Source: paper PMC9161972 (Journal of Medical Virology, 2022)
